Measurements as given in PubChem BioAssay AID328 (DTP/NCI, 2004).
Values joined by “and” are separate entries in the source; they are usually repeats but may differ in a detail not shown here. Equal values may be shown once. Inconclusive results and toxic doses are left out.

Test system: BDF1 mice, P388 leukemia ip, median survival T/C
Test: NCI In Vivo Anticancer Drug Screen. Data for tumor model P388 Leukemia (intraperitoneal) in B6D2F1 (BDF1) mice
Details: endpoint: median survival time, higher = longer survival
Summary of the method: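 Steps: implant the tumour, treat one group with compound and another with vehicle, record survival, then divide treated by control.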

COC(=O)[C@@]12OC[C@]34[C@H]([C@@H](O)[C@@H]1O)[C@@]1(C)CC(=O)C(O)=C(C)[C@@H]1C[C@H]3OC(=O)[C@H](OC(=O)/C=C(\C)C(C)C)[C@@H]24
T/C (dose: 0.03 mg/kg/injection, schedule: Q01DX009 (ip), vehicle: saline + alcohol): 151 % of control
T/C (dose: 0.03 mg/kg/injection, schedule: Q01DX009 (ip), vehicle: saline): 155 % of control
T/C (dose: 0.05 mg/kg/injection, schedule: Q01DX005 (iv), vehicle: saline + alcohol): 100 % of control
T/C (dose: 0.05 mg/kg/injection, schedule: Q01DX009 (ip), vehicle: saline + alcohol): 150 % of control
T/C (dose: 0.06 mg/kg/injection, schedule: Q01DX009 (ip), vehicle: other): 153 % of control
T/C (dose: 0.06 mg/kg/injection, schedule: Q01DX009 (ip), vehicle: saline): 170 % of control
T/C (dose: 0.06 mg/kg/injection, schedule: Q01DX009 (sc), vehicle: saline + alcohol): 100 % of control
T/C (dose: 0.06 mg/kg/injection, schedule: Q03HX024 (ip), vehicle: other): 155 % of control
T/C (dose: 0.06 mg/kg/injection, schedule: Q03HX024 (ip), vehicle: saline + alcohol): 152 % of control and 153 % of control
T/C (dose: 0.1 mg/kg/injection, schedule: Q01DX005 (iv), vehicle: saline + alcohol): 100 % of control
T/C (dose: 0.1 mg/kg/injection, schedule: Q01DX009 (ip), vehicle: saline + alcohol): 158 % of control
T/C (dose: 0.12 mg/kg/injection, schedule: Q01DX009 (ip), vehicle: other): 177 % of control
T/C (dose: 0.12 mg/kg/injection, schedule: Q01DX009 (ip), vehicle: saline + alcohol): 158 % of control
T/C (dose: 0.12 mg/kg/injection, schedule: Q01DX009 (ip), vehicle: saline with Tween-80): 151 % of control
T/C (dose: 0.12 mg/kg/injection, schedule: Q01DX009 (ip), vehicle: saline): 180 % of control
T/C (dose: 0.12 mg/kg/injection, schedule: Q03HX024 (ip), vehicle: other): 166 % of control
T/C (dose: 0.12 mg/kg/injection, schedule: Q03HX024 (ip), vehicle: saline + alcohol): 157 % of control
T/C (dose: 0.12 mg/kg/injection, schedule: Q03HX024 (ip), vehicle: saline with Tween-80): 150 % of control
T/C (dose: 0.13 mg/kg/injection, schedule: Q01DX009 (ip), vehicle: saline + alcohol): 158 % of control and 164 % of control and 173 % of control
T/C (dose: 0.13 mg/kg/injection, schedule: Q01DX009 (ip), vehicle: saline with Tween-80): 161 % of control
T/C (dose: 0.13 mg/kg/injection, schedule: Q01DX009 (sc), vehicle: saline + alcohol): 108 % of control
T/C (dose: 0.13 mg/kg/injection, schedule: Q03HX016 (ip), vehicle: saline + alcohol): 152 % of control
T/C (dose: 0.13 mg/kg/injection, schedule: Q03HX024 (ip), vehicle: saline + alcohol): 159 % of control
T/C (dose: 0.2 mg/kg/injection, schedule: Q01DX005 (iv), vehicle: saline + alcohol): 100 % of control
T/C (dose: 0.2 mg/kg/injection, schedule: Q01DX009 (ip), vehicle: saline + alcohol): 173 % of control
T/C (dose: 0.25 mg/kg/injection, schedule: Q01DX009 (ip), vehicle: other): 171 % of control
T/C (dose: 0.25 mg/kg/injection, schedule: Q01DX009 (ip), vehicle: saline with Tween-80): 183 % of control
T/C (dose: 0.25 mg/kg/injection, schedule: Q01DX009 (sc), vehicle: saline + alcohol): 108 % of control
T/C (dose: 0.25 mg/kg/injection, schedule: Q03HX016 (ip), vehicle: saline + alcohol): 165 % of control
T/C (dose: 0.25 mg/kg/injection, schedule: Q03HX024 (ip), vehicle: saline with Tween-80): 169 % of control
T/C (dose: 0.25 mg/kg/injection, schedule: Q04DX003 (ip), vehicle: saline + alcohol): 122 % of control
T/C (dose: 0.25 mg/kg/injection, schedule: Q04DX003 (ip), vehicle: saline with Tween-80): 120 % of control
T/C (dose: 0.4 mg/kg/injection, schedule: Q01DX005 (iv), vehicle: saline + alcohol): 107 % of control
T/C (dose: 0.4 mg/kg/injection, schedule: Q01DX009 (ip), vehicle: saline + alcohol): 185 % of control
T/C (dose: 0.44 mg/kg/injection, schedule: Q01DX009 (ip), vehicle: saline with Tween-80): 186 % of control
T/C (dose: 0.5 mg/kg/injection, schedule: Q01DX009 (ip), vehicle: other): 177 % of control
T/C (dose: 0.5 mg/kg/injection, schedule: Q01DX009 (ip), vehicle: saline with Tween-80): 175 % of control
T/C (dose: 0.5 mg/kg/injection, schedule: Q01DX009 (ip), vehicle: saline): 150 % of control
T/C (dose: 0.5 mg/kg/injection, schedule: Q01DX009 (oral), vehicle: saline + alcohol): 101 % of control and 110 % of control
T/C (dose: 0.5 mg/kg/injection, schedule: Q01DX009 (sc), vehicle: saline + alcohol): 116 % of control
T/C (dose: 0.5 mg/kg/injection, schedule: Q04DX003 (ip), vehicle: saline + alcohol): 120 % of control
T/C (dose: 0.5 mg/kg/injection, schedule: Q04DX003 (ip), vehicle: saline with Tween-80): 117 % of control
T/C (dose: 0.5 mg/kg/injection, schedule: Q08DX002 (ip), vehicle: saline + alcohol): 109 % of control
T/C (dose: 0.5 mg/kg/injection, schedule: Q08DX002 (ip), vehicle: saline with Tween-80): 116 % of control
T/C (dose: 0.65 mg/kg/injection, schedule: Q04DX003 (ip), vehicle: saline + alcohol): 123 % of control
T/C (dose: 0.67 mg/kg/injection, schedule: Q01DX009 (ip), vehicle: saline with Tween-80): 169 % of control
T/C (dose: 0.8 mg/kg/injection, schedule: Q01DX005 (ip), vehicle: saline + alcohol): 164 % of control
T/C (dose: 0.8 mg/kg/injection, schedule: Q01DX005 (iv), vehicle: saline + alcohol): 106 % of control and 119 % of control
T/C (dose: 1.0 mg/kg/injection, schedule: Q01DX001 (ip), vehicle: saline + alcohol): 107 % of control
T/C (dose: 1.0 mg/kg/injection, schedule: Q01DX001 (ip), vehicle: saline with Tween-80): 112 % of control
T/C (dose: 1.0 mg/kg/injection, schedule: Q01DX001 (oral), vehicle: saline + alcohol): 100 % of control and 101 % of control
T/C (dose: 1.0 mg/kg/injection, schedule: Q01DX001 (sc), vehicle: saline + alcohol): 114 % of control
T/C (dose: 1.0 mg/kg/injection, schedule: Q01DX009 (ip), vehicle: saline): 166 % of control
T/C (dose: 1.0 mg/kg/injection, schedule: Q01DX009 (oral), vehicle: saline + alcohol): 105 % of control and 107 % of control
T/C (dose: 1.0 mg/kg/injection, schedule: Q04DX003 (ip), vehicle: saline + alcohol): 123 % of control
T/C (dose: 1.0 mg/kg/injection, schedule: Q04DX003 (ip), vehicle: saline with Tween-80): 123 % of control
T/C (dose: 1.0 mg/kg/injection, schedule: Q08DX002 (ip), vehicle: saline + alcohol): 115 % of control
T/C (dose: 1.0 mg/kg/injection, schedule: Q08DX002 (ip), vehicle: saline with Tween-80): 99 % of control
T/C (dose: 1.08 mg/kg/injection, schedule: Q04DX003 (ip), vehicle: saline + alcohol): 123 % of control
T/C (dose: 1.5 mg/kg/injection, schedule: Q01DX009 (ip), vehicle: saline with Tween-80): 186 % of control
T/C (dose: 1.6 mg/kg/injection, schedule: Q01DX005 (ip), vehicle: saline + alcohol): 182 % of control
T/C (dose: 1.8 mg/kg/injection, schedule: Q04DX003 (ip), vehicle: saline + alcohol): 110 % of control and 123 % of control
T/C (dose: 2.0 mg/kg/injection, schedule: Q01DX001 (ip), vehicle: saline + alcohol): 106 % of control
T/C (dose: 2.0 mg/kg/injection, schedule: Q01DX001 (ip), vehicle: saline with Tween-80): 112 % of control
T/C (dose: 2.0 mg/kg/injection, schedule: Q01DX001 (oral), vehicle: saline + alcohol): 99 % of control and 101 % of control
T/C (dose: 2.0 mg/kg/injection, schedule: Q01DX001 (sc), vehicle: saline + alcohol): 113 % of control
T/C (dose: 2.0 mg/kg/injection, schedule: Q01DX009 (ip), vehicle: saline with Tween-80): 97 % of control
T/C (dose: 2.0 mg/kg/injection, schedule: Q01DX009 (oral), vehicle: saline + alcohol): 96 % of control and 111 % of control
T/C (dose: 2.0 mg/kg/injection, schedule: Q01DX009 (sc), vehicle: saline + alcohol): 99 % of control
T/C (dose: 2.0 mg/kg/injection, schedule: Q08DX002 (ip), vehicle: saline + alcohol): 99 % of control
T/C (dose: 2.0 mg/kg/injection, schedule: Q08DX002 (ip), vehicle: saline with Tween-80): 91 % of control
T/C (dose: 3.2 mg/kg/injection, schedule: Q01DX005 (iv), vehicle: saline + alcohol): 110 % of control
T/C (dose: 4.0 mg/kg/injection, schedule: Q01DX001 (oral), vehicle: saline + alcohol): 101 % of control and 105 % of control
T/C (dose: 4.0 mg/kg/injection, schedule: Q01DX009 (oral), vehicle: saline + alcohol): 97 % of control and 115 % of control
T/C (dose: 8.0 mg/kg/injection, schedule: Q01DX001 (oral), vehicle: saline + alcohol): 98 % of control and 99 % of control
T/C (dose: 45.0 micrograms/kg/injection, schedule: Q01DX009 (ip), vehicle: saline + alcohol): 155 % of control
T/C (dose: 90.0 micrograms/kg/injection, schedule: Q01DX009 (ip), vehicle: saline + alcohol): 180 % of control
T/C (dose: 177.0 micrograms/kg/injection, schedule: Q01DX009 (ip), vehicle: saline + alcohol): 190 % of control
T/C (dose: 389.0 micrograms/kg/injection, schedule: Q01DX004 (ip), vehicle: saline + alcohol): 159 % of control
T/C (dose: 400.0 micrograms/kg/injection, schedule: Q01DX009 (ip), vehicle: saline + alcohol): 185 % of control
T/C (dose: 432.0 micrograms/kg/injection, schedule: Q01DX009 (ip), vehicle: saline + alcohol): 180 % of control and 181 % of control
T/C (dose: 720.0 micrograms/kg/injection, schedule: Q01DX009 (ip), vehicle: saline + alcohol): 182 % of control
T/C (dose: 1200.0 micrograms/kg/injection, schedule: Q01DX009 (ip), vehicle: saline + alcohol): 179 % of control
T/C (dose: 2000.0 micrograms/kg/injection, schedule: Q01DX009 (ip), vehicle: saline + alcohol): 189 % of control
